Assay results published in US20120283304A1, “Formulations of Temozolomide for Parenteral Administration” (SAHAJ LIFE SCIENCES PVT. LTD., priority 2009, published 2012).
Like-named read-outs stand apart in the source and are kept apart here.

Tests used:
[1] = Chemical parameters (assay and impurities) of the lyophilised formulations; type: physicochemical
Protocol: The formulations were analysed and the data is tabulated below: […]

[2] = cited from earlier work
[3] = cited from earlier work; remark: listed apart in the source

% Assay [1]: 100.3%
% Impurities AIC [1]: 0.02%
% Impurities Any other maximum impurity [1]: Not detected
% Impurities MTC-1 [1]: Not detected
% Impurities Total impurities [1]: 0.04%
Structure (SMILES): Cn1nnc2c(C(N)=O)ncn2c1=O [Temozolomide, 3-methyl-8-carbamoyl-imidazo[5,1-d]-1,2,3,5-tetrazin-4(3H)-one]
Solubility in water [2]: only slightly soluble
Stability ([3]; acidic pH less than 5): stable
Stability ([3]; pH greater than 7): unstable
